The source of these data is US10702530B2, “Screening method” (Hoffmann-La Roche Inc., priority 2013, dated 2020).

The test system of one data set is FoxM1A mRNA. The data set can be described thus: Upregulation of FoxM1A mRNA by RT-qPCR in human fibroblasts. As to conditions: Fibroblast, 24 hours, Hill fit, read-out: EC50 for increased expression of FoxM1A mRNA including exon 9. In kind it is cell-based. On the procedure:
(§1) FIGS. 1A, 1B and 1C. Induction of alternative splicing of FoxM1 towards FoxM1A in fibroblasts. Human fibroblasts were incubated with cpds. 1-4 at different doses for 24 hours, and changes in FoxM1A RNA (containing exon A2) and FoxM1B/C (lacking exon A2) mRNA expression were assessed by RT-qPCR. Dose response curves were fitted to a Hill binding equation to estimate the EC50. FIG. 1A., upregulation of FoxM1A mRNA; FIG. 1B., downregulation of FoxM1B/C mRNA; FIG. 1C., Correlation of EC50 values for FoxM1A upregulation and FoxM1B/C downregulation. Data represent means±SEM of 4 independent observations.
(§2) To investigate an effect on splicing of FoxM1, human fibroblasts were treated for 24 hours with cpds. 1-4 in dose response, and analysed by RT-qPCR for presence of mRNA including (FoxM1A) or excluding (FoxM1B/C) the Δ9 exon. The resulting dose response curves were fitted to a Hill binding equation. […] 1, 2, 3 and 4, respectively. […] 1, 2, 3 and 4, respectively.
(§3) Fibroblasts, at 10000 cells per cm^2 were treated with varying doses of compounds ([…]) for 24 hours. RNA extraction was performed as per instructions mentioned in the Ambion® Cells-to-CT™ Kits from Applied Biosystems®. RNA samples were frozen at −20° C. until further analysis. Relative expression levels of FoxM1A or FoxM1B/C along with GAPDH for internal control, was measured using one-step multiplex reverse transcription-polymerase chain reaction (RT-PCR). TaqMan® FAM probes were used for relative quantitation of FoxM1A or FoxM1B/C expression levels and TaqMan® VIC probes were used for relative quantitation of human GAPDH levels. The fidelity of the amplification methods was determined using the ΔΔCt relative quantification method for quantitative PCR.
On the technique in general: Quantitative PCR measures a nucleic acid by following its amplification.

Data set [1] relates to FoxM1A protein. The data set can be described thus: Western blot, FoxM1A protein in differentiating (non-proliferating) human myoblasts. The format is cell-based. As to conditions: differentiating conditions (no serum), 5 days, doses up to 10 μM. On the procedure:
(§4) FIGS. 6A and 6B. No change in FoxM1A protein and no cytotoxicity in non-proliferating myoblasts. Human myoblasts were treated with cpd. 3 (0.1, 1 and 10 μM) for 5 days under differentiating conditions (in the absence of serum), and total protein extracts analyzed by SDS PAGE and Western Blot for FoxM1A and actin protein levels. FIG. 6A, FoxM1A and actin Western blots from samples treated without (control) or with cpd. 3 (0.1, 1 and 10 μM). Note that FoxM1A protein was undetectable; FIG. 6B, Protein levels of actin. Data represent means±SEM of 3 independent observations. Statistical comparison was performed by one-way ANOVA followed by Dunnet's post-hoc test.
(§5) To assess if alternative splicing of FoxM1 towards FoxM1A is present also in cells that are not proliferating, the same human primary myoblasts were differentiated to investigate if FoxM1 expression is also present and can be modulated similarly under those conditions. Under differentiating conditions, FoxM1A was undetectable by Western Blot (FIG. 6A). Treatment with cpd.
(§6) Human myoblasts were acquired from ECACC, BT474 cells were obtained from ATCC, and were cultivated according to supplier protocols. […] Fluorescence was acquired with the Odyssey imaging system (Licor Biosciences), FoxM1A intensity was normalized for actin. Data were analyzed using GraphPad software.
In general terms: In western blotting, separated proteins are transferred to a membrane and probed.

Data set [2] deals with FoxM1A protein. Description: Western blot, FoxM1A protein in proliferating human myoblasts. In kind it is cell-based. As to conditions: proliferating conditions (serum), 5 days, highest dose (10 μM). On the procedure: (§7) FIGS. 5A, 5B and 5C. Upregulation of FoxM1A protein correlates with cytotoxicity in myoblasts. Human myoblasts were treated with cpd. 3 (0.1, 1 and 10 μM) for 5 days under proliferating conditions (in the presence of serum), and total protein extracts analyzed by SDS PAGE and Western Blot for FoxM1A and actin protein levels. FIG. 5A, FoxM1A and actin Western blots from samples treated without (control) or with cpd. 3 (0.1, 1 and 10 μM); FIG. 5B, Protein levels of actin (surrogate for cell number); FIG. 5C, FoxM1A/actin ratio. Data represent means±SEM of 3 independent observations. Statistical comparison was performed by one-way ANOVA followed by Dunnet's post-hoc test. *, p<0.05, **, p<0.01, ***, p<0.001.
(§8) To assess if alternative splicing of FoxM1 towards FoxM1A results in meaningful changes in the protein levels and cell death, human primary myoblasts were treated under proliferating conditions to modulate FoxM1 expression and evaluate its consequence. Under proliferative conditions, FoxM1A was detectable by Western Blot, but at low concentrations […]. Treatment with cpd. […]
as §6

The test system of data set [3] is human primary myoblasts. Description: Western blot, actin protein in differentiating (non-proliferating) human myoblasts. In kind it is cell-based. As to conditions: differentiating conditions (no serum), 5 days, doses up to 10 μM. On the procedure:
as §4, §5, §6

Data set [4] concerns human primary myoblasts. The data set can be described thus: Western blot, actin protein (surrogate for cell number) in proliferating human myoblasts. In kind it is cell-based. As to conditions: proliferating conditions (serum), 5 days, doses up to 10 μM. The procedure:
as §7, §8, §6

A further data set has as its system FoxM1B/C mRNA. Description: Downregulation of FoxM1B/C mRNA by RT-qPCR in human fibroblasts. As to conditions: Fibroblast, 24 hours, Hill fit, read-out: EC50 for decline of FoxM1B/C mRNAs lacking exon 9. The format is cell-based. The procedure:
as §1, §2, §3

For data set [5], the system named is human fibroblasts. The data set can be described thus: Cell Index (cellular impedance, xCELLigence) in fibroblasts. The format is cell-based. As to conditions: up to 120 hours, 75% cut-off. On the procedure: (§9) FIGS. 2A, 2B and 2C. Induction of proliferation arrest and cell death by cpds. Alternating FoxM1 splicing towards FoxM1A in fibroblasts. Human fibroblasts were incubated with cpds. 1-4 at different doses for 5 days (120 hours), and changes in cellular impedance (Cell Index) were assessed online. Data are expressed as delta Cell Index after normalization for the starting value of each well. Data at 72, 96 and 120 hour time points (see arrows) were averaged for quantification. FIG. 2A, Micronuclei induction (MNT) in fibroblasts with increasing doses of cpd. 1-4; FIG. 2B, Dose-dependent induction of cytotoxicity by cpds. 1-4. expressed as % of untreated control after 24 hours. A cut-off at 75% (ED75%, dashed line) defined the concentration at which a meaningful impact on proliferation and cell survival was observed. […] 1-4. expressed as % of untreated control. […]
(§10) For investigation of the effect of altered FoxM1 expression on micronucleus induction (MNT) and cell survival, human fibroblasts were treated for up to 120 hours with cpds. 1-4 in dose response, and MNT, cytotoxicity or Cell Index were assessed on the xCELLigence platform, monitoring proliferation rates and cell death online. To define a quantitative measure for cytotoxic effects, a 2% cut-off for MNT induction (FIG. 2A), a 75% cut-off for cell survival (EC75%), and a 75% cut-off was estimated (ED75%). […]

Data set [6] relates to human fibroblasts. Description: Cytotoxicity in fibroblasts. The format is cell-based. As to conditions: dose response, 75% cut-off, 24 hours. On the procedure: as §9, §10
Data set [7] has as its system human fibroblasts. The data set can be described thus: Micronuclei induction (MNT) in fibroblasts. In kind it is cell-based. As to conditions: dose response, 2% cut-off. The procedure: as §9, §10
The test system of data set [8] is Human BT474 breast cancer cells. Description: Western blot, actin protein in BT474 breast cancer cells. In kind it is cell-based. As to conditions: BT474, 10 μM. The procedure: (§11) Upregulation of FoxM1A protein correlates with cytotoxicity in breast cancer cells. Human BT474 breast cancer cells were treated with cpd. 2 at 10 μM for 1 or 2 days under proliferating conditions (in the presence of serum), and total protein extracts analyzed by SDS PAGE and Western Blot for FoxM1A and actin protein levels. To assess if increase in FoxM1A protein by alternative splicing of FoxM1 towards FoxM1A induces cell death in a cancer condition, human breast cancer cells (BT474) were treated to modulate FoxM1 expression, and FoxM1A protein levels were assessed at day 1 and 2 of treatment. On day 1 and 2 under control conditions, FoxM1A was detectable by Western Blot, but at low concentrations. Treatment with cpd. […] 2 at 10 μM, whereas FoxM1A levels were increased in the same samples by nearly 3-fold. When normalized to actin, FoxM1A protein levels increased by 28-fold by treatment with cpd. 2 at 10 μM. […] Data represent means±SEM of 3 independent observations. Statistical comparison was performed by one-way ANOVA followed by Dunnet's post-hoc test. *, p<0.05, ***, p<0.001.
as §6

The test system of data set [9] is FoxM1A protein. Description: Western blot, FoxM1A protein in BT474 breast cancer cells. The format is cell-based, human. As to conditions: BT474, 10 μM. The procedure:
as §11
Human myoblasts were acquired from ECACC, BT474 cells were obtained from ATCC, and were cultivated according to supplier protocols. For experimental purpose, human myoblasts were cultivated for 5 days and were treated with varying doses of compounds (0.1-10 μM). BT474 cells were cultivated for up to 2 days and treated with compounds at 10 μM. For Western blot analyses, myoblast cells treated over 5 days or BT474 cells treated for 2 days were lysed in boiling Laemmli buffer (Bio-Rad) containing 100 mM dithiothreitol. SDS PAGE blots were probed with rabbit-anti FoxM1 antibody (Cell Signaling Technology, 1:1000), goat anti-Actin (Santa Cruz Biotechnology, 1:20000) and Alexa680/800 secondary antibodies (Molecular Probes, 1:10,000). Fluorescence was acquired with the Odyssey imaging system (Licor Biosciences), FoxM1A intensity was normalized for actin. Data were analyzed using GraphPad software.

Turning to `Cc1cn2nc(-c3cc(=O)n4cc(N5CCN(C)CC5)ccc4n3)cc2c(C)n1` [Compound 3, 2-(4,6-dimethylpyrazolo[1,5-a]pyrazin-2-yl)-7-(4-methylpiperazin-1-yl)-4H-pyrido[1,2-a]pyrimidin-4-one], the EC50 in the data set on FoxM1A mRNA is 1210 nM; in the data set with FoxM1B/C mRNA, 3540 nM. In addition, the “FoxM1A levels normalized to actin” value with FoxM1A protein [1] is “undetectable”. The “Increase of FoxM1A protein level normalized to actin” value in the data set with FoxM1A protein [2] is 30 fold. Besides, the “Actin protein level compared to controls” value in the data set with human primary myoblasts [3] was “not altered”. In the data set on human primary myoblasts [4], the “Reduction of actin protein level compared to controls” value is on record as 6 fold.

As to `CCN1CCC(c2cc(C)c3nc(-c4cc5c(C)nc(C)cn5n4)cc(=O)n3c2)CC1` [Compound 1, 2-(4,6-dimethylpyrazolo[1,5-a]pyrazin-2-yl)-7-(1-ethylpiperidin-4-yl)-9-methyl-4H-pyrido[1,2-a]pyrimidin-4-one], the EC50 with FoxM1A mRNA was determined as 246 nM; with FoxM1B/C mRNA it was 724 nM.

On to `Cc1cn2nc(-c3cc(=O)n4cc(N5CCNCC5)ccc4n3)cc2c(C)n1` [Compound 4, 2-(4,6-dimethylpyrazolo[1,5-a]pyrazin-2-yl)-7-(piperazin-1-yl)-4H-pyrido[1,2-a]pyrimidin-4-one], for which the EC50 with FoxM1A mRNA came to 68 nM; in the data set with FoxM1B/C mRNA, 104 nM. Besides, the “Potency in reduction of Cell Index” value in the data set with human fibroblasts [5] is reported as “most potent”. Further, the Potency in cytotoxicity entry in the data set on human fibroblasts [6] is “most potent”. Besides, in the data set with human fibroblasts [7], the “Potency in MNT (micronucleus induction)” value is reported as “most potent”.

Consider `CCc1nc(C)cn2nc(-c3cc(=O)n4cc(C5=CCNCC5)cc(C)c4n3)cc12` [Compound 2, 2-(4-ethyl-6-methylpyrazolo[1,5-a]pyrazin-2-yl)-9-methyl-7-(1,2,3,6-tetrahydropyridin-4-yl)-4H-pyrido[1,2-a]pyrimidin-4-one], for which the EC50 in the data set with FoxM1A mRNA amounted to 16 nM; in the data set on FoxM1B/C mRNA, 14 nM. In addition, in the data set with human fibroblasts [5], the “Potency in reduction of Cell Index” value is given as “most potent”. In the data set with human fibroblasts [6], the Potency in cytotoxicity result is “most potent”. Moreover, the “Reduction of actin protein” value in [8] (day 1) is recorded as 18%; in data set [8] (day 2) it was “more than 90%”. For the same molecule, the “Increase of FoxM1A protein levels normalized to actin” value with FoxM1A protein [9] is 28 fold. In the data set with FoxM1A protein [9] (day 1), the “Effect on FoxM1A protein” value is on record as “did not have any effect”. Moreover, the “Increase of FoxM1A protein levels” value in the data set on FoxM1A protein [9] (day 2 (same samples)) was around 3 fold. For the same molecule, in the data set with human fibroblasts [7], the “Potency in MNT (micronucleus induction)” value is “most potent”.
